According to PMC5603865, “Synthesis, In-Vitro Activity and Metabolic Properties of Quinocetone and Structurally Similar Compounds” (Iranian Journal of Pharmaceutical Research : IJPR, 2017):
≈ marks a conversion by molar mass, not a printed value. Read-outs that look alike come from different tables or passages of the source.

How the values were obtained:
[1] = system: HepG2, Vero, L-02 and Chang liver cell lines; design: method as in PMID 19061932, PMID 22840332; conditions: in-vitro, ref [7],[11]; cited from earlier work
[2] = system: normal human Chang liver cells; assay: In-vitro cytotoxicity, MTT cell proliferation assay; type: cell-based; conditions: 24 h incubation, concentration reducing viable cells by 50%
Experimental: (§1) All test compounds were dissolved in dimethyl sulfoxide (DMSO, Sigma, USA) and then diluted in Dulbecco’s modified Eagle’s medium (DMEM, Gibco, USA) at desired concentrations for cell proliferation analyses or diluted in nutrient broth medium for antimicrobial susceptibility testing respectively. The final concentration of DMSO in the DMEM culture medium was under 0.1% (v:v).
(§2) HepG2 and normal human Chang liver cells were obtained from the Institute of Biochemistry and Cell Biology, Shanghai Institutes for Biological Sciences, Chinese Academy of Sciences (Shanghai, China). HepG2 and normal human Chang liver cells were cultured at 37˚Cwith 5% CO2 in DMEM supplemented with 2% L-glutamine, 10% fetal bovine serum (Gibco, USA), 100 U/mL penicillin and 100 […] (Gibco, USA).
(§3) The methodology for evaluating the cytotoxicity inhibitory activity of various test compounds towards cell proliferation has been described previously ([11], [17]). Cell proliferation inhibitory analyses were carried out using the 3-(4,5-dimethylthiazole-2-yl)-2,5-diphenyl tetrazolium bromide (MTT, Sigma, USA) assay. Briefly, cancers HepG2 and normal human Chang liver cells were harvested and resuspended in fresh growth medium. A 100 μL cell suspension (5 × 10^4 cells/mL) was aliquoted into each well of a 96-well culture plate. After 12 h incubation, the medium was replaced with fresh medium containing various concentrations of test compounds. The cells were then incubated for another 24 h. At the end of exposure, 10 μL of MTT solution (5 mg/mL) was added, and the cells were incubated for 4 h at 37 °C. The cells were treated with 100 μL DMSO, and absorbance was recorded at 570 nm using a microplate ELISA reader (ELX800, Bio-Tek, USA). All experiments were performed at least thrice, and data were presented as the mean of sixplicate wells ± standard deviation (SD). Cell inhibition was calculated as follows:
(§4) (OD of control group − OD of experimental group) / (OD of control group − OD of blank group) ×100%. The IC50 value for a compound was calculated using SPSS.

Salmonella pullorum = assay: In-vitro antibacterial activity, MIC by broth dilution; type: cell-based; conditions: Salmonella enterica, PULLORUM, 24 h
Experimental: as §1
(§5) The preliminary antibacterial activities were obtained for selected compounds against various bacteria, namely: Staphyloccocus aureus ATCC25923 (Gram-positive bacteria), Clostridium perfringen CVCC52,8604 (anaerobes bacteria), Salmonella pullorum (Gram-negative bacteria), Escherichia coli ATCC25922 (Gram negative bacteria) and Aeromonas hydrophila (Gram-negative bacteria) were used in the study. Each strain was cultured in appropriate broth medium. Clostridium perfringen was incubated in an anaerobic chamber. The minimum inhibitory concentration (MIC) for each test compound was estimated using the broth dilution method. The MIC’s was determined for each strain/compound pairs that presented antimicrobial activity. The method was modified from Mohapatra›s methods ([14], [15]). Cell suspensions were prepared in 2 mL of liquid medium with concentrations of various tests of compounds in 15 mL culture tubes by inoculation with 100 μL of 10^6 cfu/mL from each stock. The cultures were incubated at 28 °C or 37 °C for 24 h. Tubes showing no visible turbidity represented the MIC, and subsequently, were inoculated on the right side of the 9cm sterile nutrient agar plates without various test compounds and incubated for 24 h (Clostridium perfringen was incubated in an anaerobic chamber.). The least concentration, at which no growth was observed, represented the minimum bactericidal concentration (MBC) ([16]).

[3] = system: Staphyloccocus aureus ATCC25923; assay: as above; type: cell-based; conditions: broth dilution, 24 h; read-out: MIC values Staphyloccocus aureus ATCC25923
Experimental: as §1, §5

Aeromonas hydrophila [4] = assay: as above; type: cell-based; conditions: Aeromonas hydrophila, 24 h, read-out: MIC values Aeromonas hydrophila
Experimental: as §1, §5

[5] = system: Escherichia coli ATCC25922; assay: as above; type: cell-based; conditions: Escherichia coli, ATCC25922; broth dilution, 24 h; read-out: MIC values Escherichia coli ATCC25922
Experimental: as §1, §5

[6] = system: Clostridium perfringen CVCC52,8604; assay: In-vitro antibacterial activity, MIC by broth dilution (anaerobic chamber); type: cell-based; conditions: Clostridium, 24 h
Experimental: as §1, §5

HepG2 cells [7] = assay: In-vitro cytotoxicity, MTT cell proliferation assay; type: cell-based, human; conditions: 24 h incubation, concentration reducing viable cells by 50%
Experimental: as §1, §2, §3, §4

HepG2 cells [8] = assay: Identification of metabolic pathways in HepG2 cells by LC-MS/MS; type: in vitro ADME, human; conditions: HepG2 cells incubated for 24 h
Experimental: For recognition of the metabolic characteristics of quinocetone (3a), deoxyquinocetone (5a), olaquindox, 3-methyl-2-(3-fura-2-propenoyl)-quinoxaline -1,4-dioxide 6, and 3-methyl -2-quinoxaline-2-carboxylate-1,4-dioxide 8, HepG2 cells were seeded at 6× 10^4 cells/ml density in 24-well plates. After 24 h incubation, the medium was replaced with fresh medium containing various concentrations ([…]) of test compounds. After 24 h incubation, the medium was collected and extracted with ethyl acetate then centrifuged at […] for 20min at 4 °C. The organic supernatant was evaporated under nitrogen atmosphere at 40 °C, the residue was dissolved in 200μL acetonitrile. The aliquot was filtered by a 0.22 μM membrane then analyzed. The blank is conducted in the absence of pharmaceuticals.
All experiments were performed with a Waters Alliance 2695 LC system (Waters) and a quattro micro API quadruple mass spectrometer (Micromass, Manchester, UK) equipped with an electro-spray ion source (ESI).
LC analysis was carried out on an XTerra C18 HPLC column (2.1 mm×100 mm, 3.5 μM) (Waters, Milford, MA, USA) equipped with a guard column (XTerra C18 2.1 mm×100 mm, 3.5μM) (Waters, Milford, MA, USA). […]
The MS instrument was used for analysis operating in a positive ion mode. […] The spectra was recorded in the range m/z 50~500 for full scan MS analysis. […]

[9] = system: Gram-positive and Gram-negative bacteria; assay: Antibacterial activity class based on the MIC results; type: cell-based
Experimental: as §5
In this study, activity of quinoxaline-1, 4-dioxides and their deoxygenations was tested against selected Gram-negative bacteria (Escherichia coli, Salmonella pullorum and Aeromonas hydrophila), Gram-positive bacteria (Staphyloccocus aureus and Clostridium perfringen). The in-vitro antibacterial activity was based on the MIC results: Strong antibacterial activity, if MIC is less than 50 μg/mL; Moderate, if MIC is in between 50 and 250 μg/mL; No activity, if MIC is more than 500 μg/mL.

Aeromonas hydrophila [10] = assay: Minimum bactericidal concentration (MBC), subculture on nutrient agar; type: cell-based; conditions: least concentration with no growth on agar plates, 24 h
Experimental: as §5, with “The least concentration, at which no growth was observed, represented the minimum bactericidal concentration (MBC) ([16]).” left out

[11] = Homo sapiens, Chang liver, 24 h

Compound	growth inhibitory effects [1]	IC50 [2]	IC50 [2, 11]	MIC (Salmonella pullorum)	MIC [3]	MIC (Aeromonas hydrophila [4]; broth dilution)	MIC [5]	MIC [6]	IC50 (HepG2 cells [7])	IC50 (HepG2 cells [7]; Homo sapiens, HepG2, 24 h)	categories of metabolites in HepG2 cells (HepG2 cells [8])	antibacterial activity against Gram-positive and Gram-negative bacteria [9]	MIC (Aeromonas hydrophila [4])	melting point	MBC (Aeromonas hydrophila [10])
Cc1c(C(=O)C=Cc2ccccc2)[n+]([O-])c2ccccc2[n+]1[O-] [Compound 3a, 3-Methyl-2-(3-phenyl-2-propenoyl)-quinoxaline-1,4-dioxide, reference compound]	significant growth inhibitory effects	63.3 ± 5.55 µM	63 µM	49 µg/mL (≈ 160 µM)	24.5 µg/mL (≈ 79.9 µM)	49 µg/mL (≈ 160 µM)	97.9 µg/mL (≈ 320 µM)	196 µg/mL (≈ 639 µM)	49.3 ± 1.94 µM	49 µM	reduction, hydroxylation, and a combination of reduction and hydroxylation	strong or moderate activity	–	–	–
Cc1c[n+]([O-])c2ccccc2[n+]1[O-] [Compound 11, 3-methyl-quinoxaline-1,4-dioxide]	–	–	452 ± 6.86 µM	451 µg/mL (≈ 2560 µM)	451 µg/mL (≈ 2560 µM)	–	56.3 µg/mL (≈ 320 µM)	225 µg/mL (≈ 1280 µM)	–	465 ± 28.8 µM	–	little or no activity	225 µg/mL (≈ 1280 µM)	173.5 to 176.8 °C	–
Cc1c(C(=O)NCCO)[n+]([O-])c2ccccc2[n+]1[O-] [olaquindox, n-(2-hydroxyethyl)-3-methyl-2-quinoxalinecarboxamide 1,4-dioxide, reference compound]	much lower than quinocetone	–	815 ± 31.2 µM	84.2 µg/mL (≈ 320 µM)	42.1 µg/mL (≈ 160 µM)	21 µg/mL (≈ 79.9 µM)	21 µg/mL (≈ 79.9 µM)	67.3 µg/mL (≈ 256 µM)	–	893 ± 14.7 µM	–	strong or moderate activity	–	–	84.2 µg/mL (≈ 320 µM)
Cc1c(C(=O)/C=C/c2cccc(O)c2)[n+]([O-])c2ccccc2[n+]1[O-] [Compound 3b]	–	68 ± 2.9 µM	68 µM	25.8 µg/mL (≈ 79.9 µM)	12.9 µg/mL (≈ 40 µM)	206 µg/mL (≈ 639 µM)	103 µg/mL (≈ 320 µM)	51.5 µg/mL (≈ 160 µM)	30.5 ± 1.3 µM	30 µM	–	strong or moderate activity	–	–	–
CC(=O)c1nc2ccccc2nc1C [Compound 4, 2-acetyl-3-methylquinoxaline]	–	–	672 ± 23.2 µM	476 µg/mL (≈ 2560 µM)	> 500 µg/mL	119 µg/mL (≈ 639 µM)	> 500 µg/mL	> 500 µg/mL	–	572 ± 36.2 µM	–	little or no activity	–	–	–
